Measured values reported in US20080249024A1, “Peptides facilitating or inhibiting a nterograde transport” (priority 2006, published 2008).
Values joined by “and” are separate entries in the source; they are usually repeats but may differ in a detail not shown here. Equal values may be shown once. Read-outs that look alike come from different tables or passages of the source. One block for each molecule: values may come before it.

Columns and labels:
[1] = biological target: axoplasmic motors (squid giant axon); experiment: cell-based or functional assay
giant axon of the squid = experiment: Transport of peptide- or protein-conjugated fluorescent beads injected into the squid giant axon, confocal time-lapse; type: cell-based, squid (Loligo pealei); conditions: for Max. Velocity / Ave. Velocity (instantaneous): beads conjugated to peptide/protein; for Ave. Velocity (instantaneous): number of moves in brackets; for transport behaviour of conjugated beads in the axon (in words): co-injected with other beads into the same axon; for beads leaving the injection site per minute: 10^6 beads injected
Experimental: The giant axon was obtained from squid (Loligo pealei) at the Marine Biological Laboratory, Woods Hole, Mass. (46). Red and green beads, each conjugated to a different peptide (1.5 nl at […]), were loaded into a mercury micropipette either as a mixture or in equal volumes separated by oil (Bearer, E. L., et al., (2000) Proc Natl Acad Sci USA 97, 8146-50; Terasaki, M., S. et al., (1995) Proc Natl Acad Sci U S A 92, 11500-3; Jaffe, L. A. & Terasaki, M. (2004) Methods Cell Biol 74, 219-42, FIG. S1). For each pair of beads the order of injection was alternated such that each color would have an opportunity to recruit motors first.
Carboxylated microspheres (beads, 0.1 μm diameter) with red (580/605 nm) and green (505/515 nm) fluorescence (Invitrogen) were washed through a Low Binding Durapore filter (100 nm cut-off, Millipore). Uncoated beads were diluted in motility buffer (Brady, S. et al., (1982) Science 218, 1129-31) and injected without further treatment.
Custom synthesized peptides (Aves Labs, Inc) were cross-linked to beads via their amino terminus to allow presentation of the carboxy end of the peptide to the cytoplasm, mimicking the physiological orientation of APP. APP constructs (C99 and APP-680) were generated by PCR from human APP-YFP in pShuttleCMV (E.-M. Mandelkow and Jacek Biernat, Max Planck Institute, Hamburg, Germany (Stamer, K., V. et al., (2002) J Cell Biol 156, 1051-63)). APP-YFP is actively transported in neurons (Stamer et al., supra). For C99, the YFP moiety was replaced with mRFP (Campbell, R. E., et al., (2002) Proc Natl Acad Sci USA 99, 7877-82.) and for APP-680 with GFP. Each construct was cross-linked to a bead of similar spectrum as the fluorescent protein, and conjugated beads individually checked for monochromic emission by confocal. […] Accuracy of all sequences was confirmed by sequencing. Recombinant protein was generated in PC12 cells and purified by anti-fluorescent protein affinity columns (Vector Labs). Protein concentrations were determined by Bio-Rad protein assay, and composition and purity determined by SDS-PAGE.
Peptides or recombinant proteins (20 μl of a 2 mg/ml stock) were mixed in 300 μl of 50 mM MES buffer with 10 μl of 2% beads for 15 min. Cross-linker (1-(3-dimethylaminopropyl)-3-ethylcarbodiimide hydrochloride; EDAC, Molecular Probes) was added to a concentration of 10 μg/ml and the solution adjusted to pH 6.5 with 1M NaOH. After 5 hr the reaction was quenched by adding 2M glycine for a final of 0.1M. Conjugation was confirmed by analyzing peptide concentrations before and after by protein assay. Protein:bead ratio was adjusted that equivalent molar amounts of each protein would be conjugated to the beads. Efficiency of conjugation was relatively similar for all peptides. Binding sites on the beads (10^6) were saturated by using 300-1000 fold excess peptide. For C99 and APP-680, protein concentration was adjusted so that 3,000 copies per bead were conjugated to the surface and unoccupied sites blocked with glycine.
Detection parameters were set to ensure that each color was uniquely detected in its appropriate channel by imaging beads on coverslips with the Zeiss LSM 510 Laser Scanning Confocal Microscope. Fluorescent bead movements in the axon were collected with 10× Plan Neofluor 0.3NA air, and 40× Achroplan 0.8NA water correctible objectives. Green and red fluorescence and phase images were collected simultaneously using Zeiss LSM510 multi-tracking.
Rates and trajectories of APP-C beads were measured by stepping through the frames in either the Zeiss LSM browser or NIH ImageJ (http://rsb.info.nih.gov/nih-image/). Only particles moving into and out of a frame were included. Rates of moving particles were statistically analyzed and graphed using Microsoft Excel.

giant axon = experiment: Comparison of velocity of JIP and APP peptide beads and carboxylated negative charge beads in the giant axon (Metamorph); type: cell-based, squid
Experimental: (§1) JIP peptide was conjugated to 100 nm fluorescent nanospheres (beads) following the protocol described in Example 1. Washed conjugated beads were injected into a freshly dissected giant squid axon and transport imaged by confocal microscopy.
Movements of beads conjugated to APP-C, JIP, or unconjugated (negative charge) after injection in the axon were measured using Metamorph imaging software (Molecular Devices). Average velocity of JIP beads was 20% faster than APP or negative charge. As is known, negative charge beads are transported in the axon but less frequently than peptide-conjugated beads.
The different surfaces of the beads influence the average rate of movements. In this experiment, movements between frames were measured only when beads moved into and out of the frame.

kinesin 3 (Kif1a) = biological target: T1, kinesin 3 (Kif1a) (Rattus norvegicus, UniProt F1M4A4); experiment: Peptide-bead pull-down from rat brain extract, Western blot for kinesin 3; type: binding; conditions: Western blot of beads and supernatants
T1 construct: tissue Pelco; host or cells: rat brain cortex extract
Experimental: (§2) Rat brain extract was prepared from frozen rat brain (Pelco). Rat brain was cut from a frozen block of cortex, weighed, and solubilized in 1% Triton and buffer with sonication (3 times 1 sec bursts with a Branson sonicator set at microtip 4). After clarifying centrifugation at 15,000×g for 15 min, 10 μl of extract in pulldown buffer (Lazarov et al. 2005, supra) was layered over carboxylated beads conjugated to various peptides according to the manufacturer's instructions (Dynal).

giant squid axon = experiment: JIP peptide-coated bead transport in giant squid axon, confocal microscopy; type: cell-based; conditions: injection site imaged at 0 and 55 min
Experimental: as §1

kinesin 1 heavy chain = experiment: Peptide-bead pull-down from rat brain extract, Western blot for kinesin 1; type: binding; conditions: Western blot of beads and supernatants
Experimental: as §2

[2] = biological target: axoplasmic motors (squid giant axon); experiment: cell-based or functional assay; remark: listed apart in the source

T1 sequence (F1M4A4 whole entry): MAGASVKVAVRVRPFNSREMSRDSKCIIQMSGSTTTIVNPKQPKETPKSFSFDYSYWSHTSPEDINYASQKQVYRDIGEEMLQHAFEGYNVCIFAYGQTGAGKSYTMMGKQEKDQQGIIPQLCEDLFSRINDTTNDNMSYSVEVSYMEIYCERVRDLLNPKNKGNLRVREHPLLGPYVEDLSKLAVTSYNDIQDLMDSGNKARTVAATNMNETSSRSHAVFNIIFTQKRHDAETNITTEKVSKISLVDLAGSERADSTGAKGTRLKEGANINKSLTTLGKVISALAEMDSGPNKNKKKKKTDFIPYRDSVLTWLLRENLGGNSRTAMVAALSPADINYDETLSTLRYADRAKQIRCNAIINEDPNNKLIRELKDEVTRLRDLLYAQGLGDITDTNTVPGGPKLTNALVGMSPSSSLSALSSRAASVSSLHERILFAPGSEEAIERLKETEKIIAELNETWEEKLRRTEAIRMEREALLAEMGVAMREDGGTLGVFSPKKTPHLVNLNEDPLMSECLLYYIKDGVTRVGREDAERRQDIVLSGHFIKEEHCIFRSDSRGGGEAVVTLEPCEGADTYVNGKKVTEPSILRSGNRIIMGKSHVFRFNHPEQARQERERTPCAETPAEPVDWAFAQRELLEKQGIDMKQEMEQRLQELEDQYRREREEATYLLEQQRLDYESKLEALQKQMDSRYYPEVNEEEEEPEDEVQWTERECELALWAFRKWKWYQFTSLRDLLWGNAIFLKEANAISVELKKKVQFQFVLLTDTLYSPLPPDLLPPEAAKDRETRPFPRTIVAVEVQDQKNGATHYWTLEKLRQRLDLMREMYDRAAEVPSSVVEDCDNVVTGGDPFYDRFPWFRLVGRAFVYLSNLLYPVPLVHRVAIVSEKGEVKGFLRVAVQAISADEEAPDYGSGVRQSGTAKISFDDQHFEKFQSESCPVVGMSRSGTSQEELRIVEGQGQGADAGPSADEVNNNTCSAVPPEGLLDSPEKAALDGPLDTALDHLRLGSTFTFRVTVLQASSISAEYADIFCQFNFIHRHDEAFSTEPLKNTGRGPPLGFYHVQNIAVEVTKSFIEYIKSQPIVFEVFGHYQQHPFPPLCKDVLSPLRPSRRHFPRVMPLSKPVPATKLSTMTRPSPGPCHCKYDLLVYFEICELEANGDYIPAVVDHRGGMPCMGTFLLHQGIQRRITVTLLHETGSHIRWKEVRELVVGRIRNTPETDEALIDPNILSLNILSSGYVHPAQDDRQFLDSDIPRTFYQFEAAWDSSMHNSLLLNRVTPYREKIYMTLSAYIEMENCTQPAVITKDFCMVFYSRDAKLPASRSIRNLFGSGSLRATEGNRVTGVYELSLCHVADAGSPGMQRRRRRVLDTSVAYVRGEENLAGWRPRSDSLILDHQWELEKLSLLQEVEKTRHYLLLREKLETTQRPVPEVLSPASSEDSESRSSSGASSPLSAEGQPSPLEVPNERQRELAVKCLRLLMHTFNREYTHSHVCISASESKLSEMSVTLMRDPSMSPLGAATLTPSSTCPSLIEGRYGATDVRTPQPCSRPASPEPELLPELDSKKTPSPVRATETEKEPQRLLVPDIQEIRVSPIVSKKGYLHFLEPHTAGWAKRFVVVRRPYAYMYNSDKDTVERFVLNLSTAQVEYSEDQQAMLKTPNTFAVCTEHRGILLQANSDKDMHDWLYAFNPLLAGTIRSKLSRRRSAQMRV

percent of beads that move (squid giant axon, no peptide) [1]: 39.5%
percent of beads that move after pre-injection of soluble APP-C peptide [1]: 10.3%
Molecule: C99, a polypeptide containing the C-terminal 99 amino acids of human APP (with mRFP in place of YFP) (from UniProt P05067 597-695)

Molecule: C99: recombinant C-terminal 99 amino acids of human APP with mRFP, full cytoplasmic domain; 3,000 copies per 100 nm bead
percent of beads that move, with peptide (giant axon of the squid; axon pre-injected with soluble APP-C peptide, average of 3 100-frame videos): 10.3%+/−4.4
Max. Velocity (giant axon of the squid): 1.46 μm/s
Ave. Velocity (instantaneous) (giant axon of the squid): 0.66+/−0.08 μm/s and 0.66 +/− 0.08 (194) μm/s
transport behaviour of conjugated beads in the axon (in words) (giant axon of the squid): both types of beads were transported
percent of beads that move (giant axon of the squid; without peptide, moving = translocated >3 consecutive frames, average of 3 100-frame videos, within 500 μm of injection site): 39.5%+/−4.5

Molecule: FVE YTC PTE DIY LE (FVEYTCPTEDIYLE) [JIP-1]
average velocity faster than APP or negative charge beads (giant axon): 20%
speed relative to negative charge beads (in words) (giant axon): almost twice as fast
Max velocity (giant axon; beads in the giant axon): 0.96 μm/sec
Ave velocity (giant axon; instantaneous velocity of beads in the axon, only beads moving into and out of the frame): 0.5 +/− 0.01 μm/sec
pull-down of kinesin 3 (Kif1a) from brain extract (kinesin 3 (Kif1a)): preferentially pulls down kinesin 3 (Kif1a)
transport of JIP beads in the axon (in words) (giant squid axon): a stream of beads can be seen heading towards the synapse

Molecule: GEPYFEMNYNTKFQQ (listed as Homo sapiens) [APP-C^j, reference compound]
beads leaving the injection site per minute (giant axon of the squid): None

Molecule: GYENPTYKFFEQMQN (listed as Homo sapiens) [APP-C, tested conjugated to beads or as soluble peptide]
pull-down of kinesin 1 heavy chain from brain extract (kinesin 1 heavy chain): preferentially bind to kinesin 1 heavy chain
Max. Velocity (giant axon of the squid): 0.9 μm/s
Ave. Velocity (instantaneous) (giant axon of the squid): 0.41 +/− 0.07 (227) μm/s

Molecule: GYENPTYKYFE-MQN (GYENPTYKYFEMQN; listed as Loligo pealei) [APP-C (squid)]
Max. Velocity (giant axon of the squid): 0.9 μm/s
Ave. Velocity (instantaneous) (giant axon of the squid): 0.53 +/− 0.09 (54) μm/s

Molecule: HMNCQNGKWDSDPSGTKTCI (listed as Homo sapiens) [APP-N, reference compound]
beads leaving the injection site per minute (giant axon of the squid): ~0.001 ×10^3 per minute
transport behaviour of conjugated beads in the axon (in words) (giant axon of the squid): remained stationary at the injection site

percent of beads that move (squid giant axon, no peptide) [2]: 36%
percent of beads that move after pre-injection of soluble APP-C peptide [2]: 0%
Molecule: GYENPTYKFFEQMQN
